Test results as given in patent US9938273B2 (Plexxikon Inc., priority 2015, dated 2018).
pIC50: −log10 of the molar value.

Experiments:
FLT3-D835Y = biological target: T1, FLT3-D835Y (Homo sapiens, UniProt P36888, D835Y); assay: AlphaScreen kinase assay with recombinant enzyme, FLT3-D835Y; format: biochemical; details: 8pt, GMean
T1 construct: purchased Invitrogen PV3967
T1 sequence (P36888 27-993 D835Y): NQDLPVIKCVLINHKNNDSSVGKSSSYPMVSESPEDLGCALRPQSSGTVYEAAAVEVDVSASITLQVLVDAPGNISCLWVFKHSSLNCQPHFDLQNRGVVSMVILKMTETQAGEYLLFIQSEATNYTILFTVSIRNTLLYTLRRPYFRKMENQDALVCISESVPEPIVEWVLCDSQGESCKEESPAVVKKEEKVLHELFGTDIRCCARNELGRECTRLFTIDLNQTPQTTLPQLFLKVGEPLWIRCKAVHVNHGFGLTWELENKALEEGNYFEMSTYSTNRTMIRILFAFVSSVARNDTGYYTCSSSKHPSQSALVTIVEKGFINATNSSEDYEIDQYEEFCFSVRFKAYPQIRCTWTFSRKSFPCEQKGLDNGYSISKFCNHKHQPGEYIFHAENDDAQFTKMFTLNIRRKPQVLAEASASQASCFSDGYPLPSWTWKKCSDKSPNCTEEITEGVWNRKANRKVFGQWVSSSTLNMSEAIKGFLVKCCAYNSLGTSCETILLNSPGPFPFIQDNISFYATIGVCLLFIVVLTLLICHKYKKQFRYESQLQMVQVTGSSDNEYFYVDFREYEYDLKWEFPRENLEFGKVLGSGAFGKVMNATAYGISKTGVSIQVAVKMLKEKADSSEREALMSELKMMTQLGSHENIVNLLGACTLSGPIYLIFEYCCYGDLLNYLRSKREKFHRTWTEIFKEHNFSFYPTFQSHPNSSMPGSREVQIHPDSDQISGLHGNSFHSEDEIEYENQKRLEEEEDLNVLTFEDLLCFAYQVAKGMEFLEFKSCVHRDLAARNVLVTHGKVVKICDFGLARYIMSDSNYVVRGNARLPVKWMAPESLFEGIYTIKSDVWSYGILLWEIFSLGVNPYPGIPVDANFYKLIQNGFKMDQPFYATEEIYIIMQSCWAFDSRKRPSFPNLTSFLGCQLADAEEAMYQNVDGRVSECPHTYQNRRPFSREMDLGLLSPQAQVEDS
Outline: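 Inhibition was measured as a drop in AlphaScreen signal arising from phosphotyrosine-bead capture of a biotinylated poly(Glu4-Tyr) peptide (30 nM) phosphorylated by recombinant kinase. For IC50 work the stated final concentration was 10 μM for the FLT3 mutants and 100 μM for c-KIT.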

[1] = system: MOLM-14 D835Y cells, FLT3 ITD and FLT3 D835Y; assay: Cell proliferation assay (CellTiter-Glo), MOLM-14 D835Y; format: cell-based; details: Homo sapiens, 72 h, 3d-Growth, GMean
Outline: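 MOLM-14 AML cells (endogenous FLT3 ITD, AC220-selected D835Y or F691L variants) or murine Ba/F3 expressing full-length FLT3 ITD/D835Y, without IL-3 for FLT3 dependence, 1×10^4 cells/well. Eight-point 1:3 series from 1 μM final, 0.2% DMSO, 3 days at 37 °C. CellTiter-Glo luminescence (ATP) gave IC50.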

SMILES	pIC50 (FLT3-D835Y)	pIC50 [1]
O=C(Nc1cccc(-c2cnc3[nH]c(-c4ccccc4)cc3c2)n1)C1CNC1 [Compound P-0084, N-[6-(2-phenyl-1H-pyrrolo[2,3-b]pyridin-5-yl)-2-pyridyl]azetidine-3-carboxamide]	5.00 to 10.00	5.00 to 10.00
O=C(c1cccc(-c2cnc3[nH]c(-c4ccccc4)cc3c2)n1)N1CCC(NC2CC2)C1 (stereo not shown) [Compound P-0085, [3-(cyclopropylamino)pyrrolidin-1-yl]-[6-(2-phenyl-1H-pyrrolo[2,3-b]pyridin-5-yl)-2-pyridyl]methanone]	5.00 to 10.00	5.00 to 10.00
O=S(=O)(NC1CCNCC1)c1cccc(-c2cnc3[nH]c(-c4ccccc4)cc3c2)n1 [Compound P-0086, 6-(2-phenyl-1H-pyrrolo[2,3-b]pyridin-5-yl)-N-(4-piperidyl)pyridine-2-sulfonamide]	5.00 to 10.00	5.00 to 10.00
NC1CCC(NS(=O)(=O)c2cccc(-c3cnc4[nH]c(-c5ccccc5)cc4c3)n2)CC1 (stereo not shown) [Compound P-0088, N-(4-aminocyclohexyl)-6-(2-phenyl-1H-pyrrolo[2,3-b]pyridin-5-yl)pyridine-2-sulfonamide]	5.00 to 10.00	5.00 to 10.00
O=C(c1cccc(-c2cnc3[nH]c(-c4ccccc4)cc3c2)n1)N1CC(F)(F)C1 [Compound P-0090, (3,3-difluoroazetidin-1-yl)-[6-(2-phenyl-1H-pyrrolo[2,3-b]pyridin-5-yl)-2-pyridyl]methanone]	5.00 to 10.00	5.00 to 10.00
COC1CN(C(=O)c2cccc(-c3cnc4[nH]c(-c5ccccc5)cc4c3)n2)C1 [Compound P-0091, (3-methoxyazetidin-1-yl)-[6-(2-phenyl-1H-pyrrolo[2,3-b]pyridin-5-yl)-2-pyridyl]methanone]	5.00 to 10.00	5.00 to 10.00
CC(C)Oc1ccc(-c2cc3cc(-c4cccc(C(=O)NC(C)(C)C#N)n4)cnc3[nH]2)cn1 [Compound P-0190, N-(1-cyano-1-methyl-ethyl)-6-[2-(6-isopropoxy-3-pyridyl)-1H-pyrrolo[2,3-b]pyridin-5-yl]pyridine-2-carboxamide]	5.00 to 10.00	5.00 to 10.00
CC(C)Oc1ncc(-c2cc3cc(-c4cccc(C(=O)NC(C)(C)C#N)n4)cnc3[nH]2)cn1 [Compound P-0191, N-(1-cyano-1-methyl-ethyl)-6-[2-(2-isopropoxypyrimidin-5-yl)-1H-pyrrolo[2,3-b]pyridin-5-yl]pyridine-2-carboxamide]	5.00 to 10.00	5.00 to 10.00
Cc1nn(C(C)C)cc1-c1[nH]c2ncc(-c3cccc(C(=O)NC(C)(C)C#N)n3)cc2c1Cl [Compound P-0192]	5.00 to 10.00	5.00 to 10.00
CC(C)(C#N)NC(=O)c1cccc(-c2cnc3[nH]c(-c4cnn(CC(F)(F)F)c4)cc3c2)n1 [Compound P-0193, N-(1-cyano-1-methyl-ethyl)-6-[2-[1-(2,2,2-trifluoroethyl)pyrazol-4-yl]-1H-pyrrolo[2,3-b]pyridin-5-yl]pyridine-2-carboxamide]	5.00 to 10.00	5.00 to 10.00
CC(C)(C#N)NC(=O)c1cccc(-c2cnc3[nH]c(-c4ccc(C5(C#N)CC5)cc4)cc3c2)n1 [Compound P-0194, 6-[2-[4-(1-cyanocyclopropyl)phenyl]-1H-pyrrolo[2,3-b]pyridin-5-yl]-N-(1-cyano-1-methyl-ethyl)pyridine-2-carboxamide]	5.00 to 10.00	5.00 to 10.00
CC(C)(C#N)NC(=O)c1cccc(-c2cnc3[nH]c(-c4cncnc4)cc3c2)n1 [Compound P-0195, N-(1-cyano-1-methyl-ethyl)-6-(2-pyrimidin-5-yl-1H-pyrrolo[2,3-b]pyridin-5-yl)pyridine-2-carboxamide]	5.00 to 10.00	5.00 to 10.00
COc1ncc(-c2cc3cc(-c4cccc(C(=O)NC(C)(C)C#N)n4)cnc3[nH]2)cn1 [Compound P-0196, N-(1-cyano-1-methyl-ethyl)-6-[2-(2-methoxypyrimidin-5-yl)-1H-pyrrolo[2,3-b]pyridin-5-yl]pyridine-2-carboxamide]	5.00 to 10.00	5.00 to 10.00

The next lines start with the values.

pIC50 (FLT3-D835Y)	pIC50 [1]	SMILES
5.00 to 10.00	5.00 to 10.00	CNC1CCN(C(=O)c2cccc(-c3cnc4[nH]c(-c5ccnc(OC)c5)cc4c3)n2)C1 (stereo not shown) [Compound P-0060, [6-[2-(2-methoxy-4-pyridyl)-1H-pyrrolo[2,3-b]pyridin-5-yl]-2-pyridyl]-[3-(methylamino)pyrrolidin-1-yl]methanone]
5.00 to 10.00	5.00 to 10.00	CNC1CCN(C(=O)c2cccc(-c3cnc4[nH]c(-c5cnn(CC(F)(F)F)c5)cc4c3)n2)C1 (stereo not shown) [Compound P-0061, [3-(methylamino)pyrrolidin-1-yl]-[6-[2-[1-(2,2,2-trifluoroethyl)pyrazol-4-yl]-1H-pyrrolo[2,3-b]pyridin-5-yl]-2-pyridyl]methanone]
5.00 to 10.00	5.00 to 10.00	CNC1CCN(C(=O)c2cccc(-c3cnc4[nH]c(-c5cccc(C#N)c5)cc4c3)n2)C1 (stereo not shown) [Compound P-0062, 3-[5-[6-[3-(methylamino)pyrrolidine-1-carbonyl]-2-pyridyl]-1H-pyrrolo[2,3-b]pyridin-2-yl]benzonitrile]
5.00 to 10.00	5.00 to 10.00	CNC1CCN(S(=O)(=O)c2cccc(-c3cnc4[nH]c(-c5ccccc5)cc4c3)n2)C1 (stereo not shown) [Compound P-0063, N-methyl-1-[[6-(2-phenyl-1H-pyrrolo[2,3-b]pyridin-5-yl)-2-pyridyl]sulfonyl]pyrrolidin-3-amine]
5.00 to 10.00	5.00 to 10.00	CN1CCC(NC(=O)c2cccc(-c3cnc4[nH]c(-c5ccccc5)cc4c3)n2)C1 (stereo not shown) [Compound P-0064, N-(1-methylpyrrolidin-3-yl)-6-(2-phenyl-1H-pyrrolo[2,3-b]pyridin-5-yl)pyridine-2-carboxamide]
5.00 to 10.00	5.00 to 10.00	CNC1CCN(C(=O)c2cccc(-c3cnc4[nH]c(C5=CCC(C)(C)CC5)cc4c3)n2)C1 (stereo not shown) [Compound P-0070, [6-[2-(4,4-dimethylcyclohexen-1-yl)-1H-pyrrolo[2,3-b]pyridin-5-yl]-2-pyridyl]-[3-(methylamino)pyrrolidin-1-yl]methanone]
5.00 to 10.00	5.00 to 10.00	O=S(=O)(NC1CNC1)c1cccc(-c2cnc3[nH]c(-c4ccccc4)cc3c2)n1 [Compound P-0071, N-(azetidin-3-yl)-6-(2-phenyl-1H-pyrrolo[2,3-b]pyridin-5-yl)pyridine-2-sulfonamide]
5.00 to 10.00	5.00 to 10.00	O=S(=O)(NC1CCNC1)c1cccc(-c2cnc3[nH]c(-c4ccccc4)cc3c2)n1 (stereo not shown) [Compound P-0072, 6-(2-phenyl-1H-pyrrolo[2,3-b]pyridin-5-yl)-N-pyrrolidin-3-yl-pyridine-2-sulfonamide]
5.00 to 10.00	5.00 to 10.00	NC1CCN(S(=O)(=O)c2cccc(-c3cnc4[nH]c(-c5ccccc5)cc4c3)n2)CC1 [Compound P-0073, 1-[[6-(2-phenyl-1H-pyrrolo[2,3-b]pyridin-5-yl)-2-pyridyl]sulfonyl]piperidin-4-amine]
5.00 to 10.00	5.00 to 10.00	CN1CC(NC(=O)c2cccc(-c3cnc4[nH]c(-c5ccccc5)cc4c3)n2)C1 [Compound P-0075, N-(1-methylazetidin-3-yl)-6-(2-phenyl-1H-pyrrolo[2,3-b]pyridin-5-yl)pyridine-2-carboxamide]
5.00 to 10.00	5.00 to 10.00	NC1(C(F)(F)F)CCN(C(=O)c2cccc(-c3cnc4[nH]c(-c5ccccc5)cc4c3)n2)C1 (stereo not shown) [Compound P-0077, [3-amino-3-(trifluoromethyl)pyrrolidin-1-yl]-[6-(2-phenyl-1H-pyrrolo[2,3-b]pyridin-5-yl)-2-pyridyl]methanone]
5.00 to 10.00	5.00 to 10.00	CC1(N)CCN(C(=O)c2cccc(-c3cnc4[nH]c(-c5ccccc5)cc4c3)n2)C1 (stereo not shown) [Compound P-0078, (3-amino-3-methyl-pyrrolidin-1-yl)-[6-(2-phenyl-1H-pyrrolo[2,3-b]pyridin-5-yl)-2-pyridyl]methanone]
5.00 to 10.00	5.00 to 10.00	CNCC1CCN(C(=O)c2cccc(-c3cnc4[nH]c(-c5ccccc5)cc4c3)n2)C1 (stereo not shown) [Compound P-0079, [3-(methylaminomethyl)pyrrolidin-1-yl]-[6-(2-phenyl-1H-pyrrolo[2,3-b]pyridin-5-yl)-2-pyridyl]methanone]
